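A five-concentration, 48-hour dose response in 96-well plates underlies each endpoint, interpolated linearly between surrounding concentrations. At the GI50, growth is halved.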 Active and inactive are the calls of the source. Rule as the data show it: active = GI50 up to about 1.1 µM and inactive = higher.
Assays:
Assay in all cases: DTP human tumour cell line panel, 48 h
[1] = test system: A498
[2] = test system: ACHN
[3] = test system: BT-549
[4] = test system: CCRF-CEM
[5] = test system: DU-145
[6] = test system: EKVX
[7] = test system: HCT-116
[8] = test system: IGROV-1
[9] = test system: K562
[10] = test system: M14
[11] = test system: MDA-MB-435
[12] = test system: MDA-N
[13] = test system: Malme-3M
[14] = test system: NCI-H226
[15] = test system: NCI/ADR-RES
[16] = test system: OVCAR-4
[17] = test system: OVCAR-5
[18] = test system: SF-295
[19] = test system: SF-539
[20] = test system: TK-10

Compound | GI50 [1] | GI50 [2] | GI50 [3] | GI50 [4] | GI50 [5] | GI50 [6] | GI50 [7] | GI50 [8] | GI50 [9] | GI50 [10] | GI50 [11] | GI50 [12] | GI50 [13] | GI50 [14] | GI50 [15] | GI50 [16] | GI50 [17] | GI50 [18] | GI50 [19] | GI50 [20]
CNC1Cc2c[nH]c3cccc(c23)C12C=C(C)C(=O)O2 (stereo not given) | > 100 µM (inactive) | > 100 µM (inactive) | > 100 µM (inactive) | > 100 µM (inactive) | > 100 µM (inactive) | > 100 µM (inactive) | > 100 µM (inactive) | > 100 µM (inactive) | > 100 µM (inactive) | > 100 µM (inactive) | > 100 µM (inactive) | > 100 µM (inactive) | > 100 µM (inactive) | > 100 µM (inactive) | > 100 µM (inactive) | > 100 µM (inactive) | > 100 µM (inactive) | > 100 µM (inactive) | > 100 µM (inactive) | > 100 µM (inactive)
CN/C(=N\N=C1/C(=O)Nc2ccccc21)SCC(=O)c1ccc(Br)cc1 | 17.4 µM (inactive) | 15.5 µM (inactive) | 68.1 µM (inactive) | 5.46 µM (inactive) | 6.82 µM (inactive) | 22.3 µM (inactive) | 4.53 µM (inactive) | 31.1 µM (inactive) | 20.5 µM (inactive) | 11.7 µM (inactive) | 9.57 µM (inactive) | 21.3 µM (inactive) | 13.5 µM (inactive) | 25.4 µM (inactive) | 6.9 µM (inactive) | 21.5 µM (inactive) | 32 µM (inactive) | 18.7 µM (inactive) | 6.38 µM (inactive) | 15 µM (inactive)
COC(=O)c1c(O)ccc2c1c1c(n2-c2ccc(OC)cc2)C(=O)c2ccccc2C1=O | > 100 µM (inactive) | 12.8 µM (inactive) | 22 µM (inactive) | 15.2 µM (inactive) | 21.5 µM (inactive) | 16.6 µM (inactive) | 16.9 µM (inactive) | 16.6 µM (inactive) | 55.2 µM (inactive) | 63.2 µM (inactive) | 66.8 µM (inactive) | 57.1 µM (inactive) | 24.4 µM (inactive) | 25.5 µM (inactive) | 14.7 µM (inactive) | 18.6 µM (inactive) | 30.7 µM (inactive) | 18.7 µM (inactive) | 15.3 µM (inactive) | 12 µM (inactive)
CN(C)C(=S)/N=c1\ssc(=S)n1Cc1ccccc1 | 0.51 µM (active) | 0.807 µM (active) | > 100 µM (inactive) | 0.411 µM (active) | 1.79 µM (inactive) | 2.15 µM (inactive) | 0.344 µM (active) | 0.632 µM (active) | 0.206 µM (active) | 0.301 µM (active) | 0.0337 µM (active) | 0.0348 µM (active) | 0.243 µM (active) | 2.61 µM (inactive) | 0.119 µM (active) | 3.42 µM (inactive) | 20 µM (inactive) | 0.229 µM (active) | 0.309 µM (active) | 1.45 µM (inactive)
O=c1[nH]c2nccnc2c2c([N+](=O)[O-])cccc12 | > 100 µM (inactive) | > 100 µM (inactive) | 65.2 µM (inactive) | > 100 µM (inactive) | > 100 µM (inactive) | > 100 µM (inactive) | > 100 µM (inactive) | > 100 µM (inactive) | > 100 µM (inactive) | > 100 µM (inactive) | > 100 µM (inactive) | > 100 µM (inactive) | > 100 µM (inactive) | 95.5 µM (inactive) | > 100 µM (inactive) | > 100 µM (inactive) | > 100 µM (inactive) | > 100 µM (inactive) | > 100 µM (inactive) | 81.8 µM (inactive)
CC[C@@H]1CC[C@@H]2[C@H](CC[C@]3(C)[C@@H](O[N+](=O)[O-])CC[C@@H]23)[C@H]1C(C)=O | 31 µM (inactive) | 28.4 µM (inactive) | 50 µM (inactive) | 32.4 µM (inactive) | 45.7 µM (inactive) | 16.8 µM (inactive) | 23.7 µM (inactive) | 34.7 µM (inactive) | 34.8 µM (inactive) | 30.8 µM (inactive) | 32.8 µM (inactive) | 28.9 µM (inactive) | 25.4 µM (inactive) | 26.5 µM (inactive) | 21.8 µM (inactive) | 39 µM (inactive) | 64.3 µM (inactive) | 42.6 µM (inactive) | 38.3 µM (inactive) | > 100 µM (inactive)
COc1ccc2nc3ccccc3c(NCCCCCCN(CCCl)CCCl)c2c1 | 0.405 µM (active) | 0.0184 µM (active) | 0.323 µM (active) | 0.0107 µM (active) | 0.0817 µM (active) | 0.895 µM (active) | 0.0299 µM (active) | 0.148 µM (active) | 0.019 µM (active) | 0.0946 µM (active) | 0.0482 µM (active) | 0.057 µM (active) | 0.537 µM (active) | 0.25 µM (active) | 0.0883 µM (active) | 0.158 µM (active) | 0.45 µM (active) | 0.0767 µM (active) | 0.215 µM (active) | 1.04 µM (active)

From ChEMBL document CHEMBL1201862, “PubChem BioAssay data set” (2004)
